Where two headings read alike, the source gives them in different places.
Tests used:
[1] = test system: MIA PaCa-2-AMGR drug-resistant cell line; assay: MIA PaCa-2-AMGR drug-resistant cell proliferation inhibitory activity test; assay type: cell-based; conditions: for IC50: 72 h, MIA PaCa-2-AMGR drug-resistant cells, 3 days incubation, CellTiter-Glo
Description: Test Example 7: Generation of MIA PaCa-2-AMGR drug-resistant cell line
(§1) MIA PaCa-2 cells were seeded and cultured at 50 to 70% confluence in six-well plate with DMEM (10% FBS+2.5% horse serum) medium at 37° C. with 5% CO2. AMG510 was added for induction at three starting concentrations of 1 nM, 10 nM and 50 nM, and the medium containing the same concentration of AMG510 was replaced every 3 days. Cells were passaged once they reached confluence. After every two passages at a given concentration of drug, the concentration was increased in a 3-fold increment until final concentrations of 1 μM for AMG510 was achieved.
(§2) MIA PaCa-2-AMGR cells in logarithmic growth phase were collected and seeded into a clear-bottom 96-well plate at a density of 4×10^3 cells per well in 80 μL of medium, and then incubated overnight at 37° C. with 5% CO2. The compounds were serially diluted 5-fold in DMSO to obtain 8 concentrations, and then further diluted with DMEM (10% FBS+2.5% horse serum) cell culture medium to obtain the working solutions (5×), 20 μL of each working solution was added to the cell culture supernatant in each well, and the plate was further incubated for 3 days at 37° C. with 5% CO2. The plate was then equilibrated with CellTiter-Glo® reagent at room temperature (25° C.) for 10-30 minutes. After aspirating 50 μL of the medium, 50 μL of CellTiter-Glo® reagent was added. The cells were thoroughly mixed with the CellTiter-Glo® reagent using a microplate shaker for 2 minutes, and then incubated at room temperature for 10 minutes. The 96-well plate was placed in a multi-mode microplate reader to record the luminescence values (RLU).
(§3) The inhibitory rate was calculated using the following formula: […]
Data were analyzed using GraphPad Prism for IC50 values (Note: The negative control refers to the group without inhibitor) The data were presented m Table 9

[2] = test system: NCI-H358-AMGR drug-resistant cell line; assay: NCI-H358-AMGR drug-resistant cell proliferation inhibitory activity test; assay type: cell-based; conditions: for IC50: 72 h, NCI-H358-AMGR drug-resistant cells, 3 days incubation, CellTiter-Glo
Description: Test Example 6t Generation of NCI-H358-AMGR Drug-Resistant Cell Line
as §1, with “NCI-H358 cells” for “MIA PaCa-2 cells”, “with RPMI-640” for “with DMEM”, “(10% FBS)” for “(10% FBS+2.5% horse serum)”, “with 5%4” for “with 5%”, “After every,” for “After every”, “a 3-old” for “a 3-fold”
as §2, with “NCI-H358-AMGR cells” for “MIA PaCa-2-AMGR cells”, “with RPMI-640)” for “with DMEM”, “(10% FBS)” for “(10% FBS+2.5% horse serum)”, “of CellTiter-Glo®,” for “of CellTiter-Glo®”, “the CellTiter-Glo®,” for “the CellTiter-Glo®”, “The […]” for “The 96-well”
as §3
Data were analyzed using GraphPad Prism for IC50 values (Note: The negative control refers to the group without inhibitor).

[3] = test system: NCI-H358 cells (KRAS G12C mutant); assay: NCI-H358 cell proliferation inhibition (CellTiter-Glo); assay type: cell-based; conditions: Homo sapiens, NCI-H358, 72 h; H358 cells (G12C mutation), 3 days, Table 6; read-out: NCI-H358 (IC50)
[4] = target: PI3Kα (Homo sapiens (Human), UniProt P42336); assay: Inhibition of PI3Kα efficacy assay (ADP-Glo kinase assay); assay type: biochemical; conditions: read-out: PI3Kα inhibitory activity (IC50)
Chain of PI3Kα (P42336 whole entry): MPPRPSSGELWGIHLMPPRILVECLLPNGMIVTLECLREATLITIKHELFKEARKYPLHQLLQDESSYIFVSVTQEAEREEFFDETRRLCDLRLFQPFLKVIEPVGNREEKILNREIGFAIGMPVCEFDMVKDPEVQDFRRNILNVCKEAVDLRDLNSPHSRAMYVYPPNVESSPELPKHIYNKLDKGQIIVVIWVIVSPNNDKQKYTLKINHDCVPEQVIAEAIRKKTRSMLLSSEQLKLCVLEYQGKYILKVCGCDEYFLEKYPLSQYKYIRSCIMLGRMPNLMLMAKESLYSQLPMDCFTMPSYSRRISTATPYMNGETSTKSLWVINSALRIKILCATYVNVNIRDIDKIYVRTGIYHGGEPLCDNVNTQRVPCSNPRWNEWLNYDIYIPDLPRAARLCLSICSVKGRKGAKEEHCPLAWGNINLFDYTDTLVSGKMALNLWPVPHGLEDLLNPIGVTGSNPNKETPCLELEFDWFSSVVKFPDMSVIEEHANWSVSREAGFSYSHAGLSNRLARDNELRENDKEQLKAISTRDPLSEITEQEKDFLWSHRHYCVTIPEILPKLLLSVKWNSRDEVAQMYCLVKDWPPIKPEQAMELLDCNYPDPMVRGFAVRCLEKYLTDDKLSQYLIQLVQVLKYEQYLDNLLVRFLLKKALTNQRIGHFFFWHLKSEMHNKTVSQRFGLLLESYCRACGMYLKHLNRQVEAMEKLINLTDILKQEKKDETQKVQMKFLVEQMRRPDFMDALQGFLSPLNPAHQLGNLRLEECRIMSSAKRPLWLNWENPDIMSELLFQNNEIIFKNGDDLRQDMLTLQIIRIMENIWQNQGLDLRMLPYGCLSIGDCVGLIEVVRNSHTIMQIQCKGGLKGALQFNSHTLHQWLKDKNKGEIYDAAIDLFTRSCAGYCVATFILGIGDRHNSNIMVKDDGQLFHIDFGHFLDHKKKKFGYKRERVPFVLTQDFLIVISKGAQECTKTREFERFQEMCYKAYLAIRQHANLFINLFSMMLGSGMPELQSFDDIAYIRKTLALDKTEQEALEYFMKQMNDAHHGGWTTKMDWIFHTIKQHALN
Chain of PI3Kα (P27986 whole entry partner): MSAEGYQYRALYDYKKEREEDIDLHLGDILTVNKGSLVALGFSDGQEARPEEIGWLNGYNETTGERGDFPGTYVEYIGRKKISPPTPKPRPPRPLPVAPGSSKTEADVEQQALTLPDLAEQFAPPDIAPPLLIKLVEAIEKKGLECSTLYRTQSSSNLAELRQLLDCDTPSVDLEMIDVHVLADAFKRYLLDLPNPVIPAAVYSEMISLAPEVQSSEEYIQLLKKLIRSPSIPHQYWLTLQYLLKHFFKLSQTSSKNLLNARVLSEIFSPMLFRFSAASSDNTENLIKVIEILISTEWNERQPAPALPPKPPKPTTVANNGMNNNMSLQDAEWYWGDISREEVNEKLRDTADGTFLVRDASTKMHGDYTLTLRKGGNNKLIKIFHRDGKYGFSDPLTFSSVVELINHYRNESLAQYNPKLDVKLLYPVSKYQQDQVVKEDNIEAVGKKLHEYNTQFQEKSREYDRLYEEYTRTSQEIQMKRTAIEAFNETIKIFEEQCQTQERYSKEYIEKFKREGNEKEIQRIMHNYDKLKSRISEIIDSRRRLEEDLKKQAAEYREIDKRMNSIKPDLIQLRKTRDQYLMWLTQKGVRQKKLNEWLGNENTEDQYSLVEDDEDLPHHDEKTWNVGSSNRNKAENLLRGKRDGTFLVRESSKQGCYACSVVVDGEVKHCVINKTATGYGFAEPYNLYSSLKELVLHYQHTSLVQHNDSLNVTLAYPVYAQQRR
Procedure, shortened: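 ADP-Glo luminescent detection of ADP from PI3Kα acting on PI substrate with ATP, 60 min at RT; compounds in 8-point five-fold serial dilution from 2 mM DMSO stock. IC50 from four-parameter variable-slope fit.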

[5] = target: PI3Kδ (Homo sapiens (Human), UniProt O00329); assay: Inhibition of PI3Kδ efficacy assay (ADP-Glo kinase assay); assay type: biochemical; conditions: read-out: PI3Kδ inhibitory activity (IC50)
Chain of PI3Kδ (O00329 whole entry): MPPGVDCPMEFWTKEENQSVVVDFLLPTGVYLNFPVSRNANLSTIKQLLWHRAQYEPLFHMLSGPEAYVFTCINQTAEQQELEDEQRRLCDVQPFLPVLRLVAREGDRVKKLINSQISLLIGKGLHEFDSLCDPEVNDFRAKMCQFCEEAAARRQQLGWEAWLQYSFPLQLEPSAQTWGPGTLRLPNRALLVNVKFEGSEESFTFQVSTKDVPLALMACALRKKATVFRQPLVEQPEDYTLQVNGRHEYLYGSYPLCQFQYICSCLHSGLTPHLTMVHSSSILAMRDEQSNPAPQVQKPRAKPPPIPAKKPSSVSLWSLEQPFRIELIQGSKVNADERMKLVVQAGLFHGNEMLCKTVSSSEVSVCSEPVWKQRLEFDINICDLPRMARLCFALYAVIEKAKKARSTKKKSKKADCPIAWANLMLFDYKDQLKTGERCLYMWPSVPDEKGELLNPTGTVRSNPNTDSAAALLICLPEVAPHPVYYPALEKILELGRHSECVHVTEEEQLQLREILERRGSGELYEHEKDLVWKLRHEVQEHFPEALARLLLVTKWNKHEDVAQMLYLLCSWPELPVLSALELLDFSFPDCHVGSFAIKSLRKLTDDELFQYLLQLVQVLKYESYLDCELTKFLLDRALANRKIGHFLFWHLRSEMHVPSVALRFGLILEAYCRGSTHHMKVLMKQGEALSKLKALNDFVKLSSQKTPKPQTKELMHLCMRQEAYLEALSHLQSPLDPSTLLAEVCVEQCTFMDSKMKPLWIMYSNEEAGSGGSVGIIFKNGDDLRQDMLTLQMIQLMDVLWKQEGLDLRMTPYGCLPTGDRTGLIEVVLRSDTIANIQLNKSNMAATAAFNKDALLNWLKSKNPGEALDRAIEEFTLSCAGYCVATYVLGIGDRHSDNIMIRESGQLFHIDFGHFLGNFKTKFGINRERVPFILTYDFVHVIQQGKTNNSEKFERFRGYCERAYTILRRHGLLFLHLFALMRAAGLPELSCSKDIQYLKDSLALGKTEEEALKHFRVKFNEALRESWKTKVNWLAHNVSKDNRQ
Chain of PI3Kδ (P27986 whole entry partner): as the sequence (P27986 whole entry partner) above
Procedure, shortened: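 Luminescent ADP-Glo readout of PI3Kδ: after a 60 min RT reaction with PI/ATP substrate, ATP depletion (40 min) and ADP detection (40 min) steps followed. Compounds tested as eight five-fold serial dilutions; inhibition rates fitted to log(inhibitor) vs. response, variable slope, for IC50.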

[6] = test system: MIA PaCa-2 cells (KRAS G12C mutant); assay: MIA PaCa-2 cell anti-proliferation (CellTiter-Glo); assay type: cell-based; conditions: Homo sapiens
Description: The number of viable cells was determined using the CellTiter-Glo® assay to evaluate the anti-proliferation efficacy of compounds. […] The compounds were serially diluted 4-fold in DMSO to obtain 9 concentrations, and then further diluted with DMEM (10% FBS+2.5% horse serum+1% penicillin/streptomycin) cell culture medium to obtain the working solutions (2×), 15 μL of each working solution was added to the cell culture supernatant in each well, and the cells were further incubated for 3 days at 37° C. with 5% CO2. The plate was then equilibrated with CellTiter-Glo® reagent at room temperature (25° C.) for 30 minutes. After adding 25 μL of CellTiter-Glo®, reagent, the cells were thoroughly mixed with the CellTiter-Glo® reagent using a microplate shaker for 2 minutes, and then incubated at room temperature for at least 30 minutes. […] Data were analyzed using GraphPad Prism for IC50 values (Note: The negative control refers to the group without inhibitor).

[7] = 72 h, MIA Paca-2 cells, 3 days, Table 7, read-out: MIA PaCa-2 (IC50)
[8] = MIA PaCa-2, 72 h, read-out: MIA PaCa-2 (IC50, nM)

Row | Compound | IC50 [3] | IC50 [6, 7] | IC50 ([4]; Table 4) | other results
1 | C=CC(=O)N1CCN(c2nc(=O)n(-c3c(C)ccnc3C(C)C)c3nc(-c4c(O)cccc4F)c(F)cc23)[C@@H](C)C1 [AMG-510, reference compound] | – | – | – | inhibition at 10 µM ([1]; 10 μM, MIA PaCa-2-AMGR, read-out: inhibition rate at the maximum dose): < 50%; IC50 [1]: > 10000 nM; inhibition at 10 µM ([2]; 10 μM, NCI-H358-AMGR, read-out: inhibition rate at the maximum dose): ≤ 50%; IC50 [2]: > 10000 nM
2 | C=CC(=O)N1CCN(c2ncnc3ccc(-c4cnc(OC)c(NS(C)(=O)=O)c4)cc23)CC1 [Example 4, N-(5-(4-(4-acryloylpiperazin-1-yl)quinazolin-6-yl)-2-methoxypyridin-3-yl)methanesulfonamide] | 494 nM | 494 nM | – | IC50 ([4]; Table 1): 9.5 nM; IC50 ([5]; Table 1): 12 nM
3 | COc1ncc(-c2ccc3ncnc(N4CCN(C(=O)/C=C/C(C)=O)C[C@@H]4C)c3c2)cc1NS(=O)(=O)c1ccc(F)cc1F [Example 8, (S,E)-2,4-difluoro-N-(2-methoxy-5-(4-(2-methyl-4-(4-oxopent-2-enoyl)piperazin-1-yl)quinazolin-6-yl)pyridin-3-yl)benzenesulfonamide] | 91.2 nM | 73.6 nM | – | IC50 [1]: 250 nM; IC50 [2]: 81.6 nM
4 | COc1ncc(-c2ccc3ncnc(N4CCC5(CN(C(=O)/C=C/C(C)=O)C5)C4)c3c2)cc1NS(=O)(=O)c1ccc(F)cc1F [Example 13, (E)-2,4-difluoro-N-(2-methoxy-5-(4-(2-(4-oxopent-2-enoyl)-2,6-diazaspiro[3.4]octan-4-yl)quinazolin-6-yl)pyridin-3-yl)benzenesulfonamide] | 73.3 nM | 144 nM | – | IC50 [1]: 433 nM
5 | COc1ncc(-c2ccc3ncnc(N4CCN(C(=O)/C=C/C(C)=O)CC4)c3c2)cc1NS(=O)(=O)c1cccc2cccc(Cl)c12 [Example 96, (E)-8-chloro-N-(2-methoxy-5-(4-(4-(4-oxopent-2-enoyl)piperazin-1-yl)quinazolin-6-yl)pyridin-3-yl)naphthalene-1-sulfonamide] | 35.8 nM | 90 nM | – | IC50 ([4]; Table 2): 1 nM; IC50 ([5]; Table 2): 171 nM
6 | COc1ncc(-c2ccc3ncnc(N4CCN(C(=O)/C=C/C(C)=O)CC4)c3c2)cc1S(=O)(=O)Nc1ccc(F)cc1F [Example 166, (E)-N-(2,4-difluorophenyl)-2-methoxy-5-(4-(4-(4-oxopent-2-enoyl)piperazin-1-yl)quinazolin-6-yl)pyridine-3-sulfonamide] | 344 nM | 369 nM | 16.1 nM | IC50 ([5]; Table 4): 22.3 nM
7 | C=C(C(=O)N1CCN(c2ncnc3ccc(-c4cnc(OC)c(NS(=O)(=O)c5ccc(F)cc5F)c4)cc23)CC1)C(C)O (stereo not shown) [Example 167, 2,4-difluoro-N-(5-(4-(4-(3-hydroxy-2-methylenebutanoyl)piperazin-1-yl)quinazolin-6-yl)-2-methoxypyridin-3-yl)benzenesulfonamide] | 36.5 nM | – | 2.2 nM | IC50 ([5]; Table 4): 11.8 nM; IC50 [2]: 73 nM; IC50 [6, 8]: 112 nM
8 | COc1ncc(-c2ccc3ncnc(N4CCN(C(=O)/C=C/C(C)=O)CC4)c3n2)cc1NS(=O)(=O)c1sc(C)nc1C [Example 222, (E)-N-(2-methoxy-5-(4-(4-(4-oxopent-2-enoyl)piperazin-1-yl)pyrido[3,2-d]pyrimidin-6-yl)pyridin-3-yl)-2,4-dimethyl-thiazole-5-sulfonamide] | 35.1 nM | 29.1 nM | 0.49 nM | IC50 ([5]; Table 4): 11.7 nM
9 | COc1ncc(-c2cc(C(F)(F)F)c3ncnc(N4CCN(C(=O)/C=C/C(C)=O)CC4)c3c2)cc1NS(=O)(=O)c1ccc(F)cc1F [Example 243, (E)-2,4-difluoro-N-(2-methoxy-5-(4-(4-(4-oxopent-2-enoyl)piperazin-1-yl)-8-(trifluoromethyl)quinazolin-6-yl)pyridin-3-yl)benzenesulfonamide] | 720 nM | – | 838 nM | IC50 [6, 8]: 393 nM

Further lines, with some results ahead:

Row | IC50 [3] | IC50 [6, 7] | IC50 ([4]; Table 4) | Compound | other results
10 | 485 nM | 485 nM | – | C=CC(=O)N1CCC(Nc2ncnc3ccc(-c4cnc(Cl)c(NS(=O)(=O)c5ccc(F)cc5F)c4)nc23)CC1 [Example 2, N-(5-(4-((1-acryloylpiperidin-4-yl)amino)pyrido[3,2-d]pyrimidin-6-yl)-2-chloropyridin-3-yl)-2,4-difluorobenzenesulfonamide] | IC50 ([4]; Table 1): 7.3 nM; IC50 ([5]; Table 1): 41.8 nM
11 | 30.6 nM | – | – | C=C(F)C(=O)N1CCN(c2ncnc3ccc(-c4cnc(OC)c(NS(=O)(=O)c5ccc(F)cc5F)c4)cc23)CC1 [Example 59, 2,4-difluoro-N-(5-(4-(4-(2-fluoroacryloyl)piperazin-1-yl)quinazolin-6-yl)-2-methoxypyridin-3-yl)benzenesulfonamide] | IC50 ([4]; Table 2): 3.3 nM; IC50 ([5]; Table 2): 13.1 nM; IC50 [1]: 141 nM
12 | 48.7 nM | 55.2 nM | 5 nM | COc1ncc(-c2ccc3ncnc(C4=CCN(C(=O)/C=C/C(C)=O)CC4)c3n2)cc1NS(=O)(=O)c1ccc(F)cc1F [Example 240, (E)-2,4-difluoro-N-(2-methoxy-5-(4-(1-(4-oxopent-2-enoyl)-1,2,3,6-tetrahydropyridin-4-yl)pyrido[3,2-d]pyrimidin-6-yl)pyridin-3-yl)benzenesulfonamide] | –
13 | 497 nM | 827 nM | 14.9 nM | COc1ncc(-c2cc3c(N4CCN(C(=O)/C=C/C(C)=O)CC4)ncnc3cn2)cc1NS(=O)(=O)c1ccc(F)cc1F [Example 245, (E)-2,4-difluoro-N-(2-methoxy-5-(4-(4-(4-oxopent-2-enoyl)piperazin-1-yl)pyrido[3,4-d]pyrimidin-6-yl)pyridin-3-yl)benzenesulfonamide] | –
14 | 115 nM | 44.1 nM | 2.3 nM | COc1ncc(-c2ccc3ncnc(N4CCN(C(=O)/C=C\C(=O)C(F)(F)F)CC4)c3c2)cc1NS(=O)(=O)c1ccc(F)cc1F [Example 248, (Z)-2,4-difluoro-N-(2-methoxy-5-(4-(4-(5,5,5-trifluoro-4-oxopent-2-enoyl)piperazin-1-yl)quinazolin-6-yl)pyridin-3-yl)benzenesulfonamide] | –
